Data taken from patent US11173162B2, “Bicyclic heterocycles as FGFR4 inhibitors” (Incyte Corporation, priority 2015, dated 2021).

Test system: FGFR3 enzyme
Test: FGFR Enzymatic Assay (FRET peptide phosphorylation), FGFR3
Format: biochemical
Conditions: IC50 ratio showing FGFR3 selectivity; Table 2A, pre-incubated for 4 hours
Protocol: The inhibitor potency of the exemplified compounds was measured in an enzyme assay that measures peptide phosphorylation using FRET measurements to detect product formation. Inhibitors were serially diluted in DMSO and a volume of 0.5 μL was transferred to the wells of a 384-well plate.
GraphPad prism3 was used to analyze the data.

Row | FGFR1/FGFR3 | FGFR4/FGFR3 | Compound
1 | >5 | >1 | COc1cc(OC)c(F)c(N2Cc3cnc(-c4cnn(CC5CCCS(=O)(=O)N5)c4)cc3C3(CC3)C2=O)c1F (centres unmarked) [Example 162, 2′-(2,6-difluoro-3,5-dimethoxyphenyl)-6′-{1-[(1,1-dioxido-1,2-thiazinan-3-yl)methyl]-1H-pyrazol-4-yl}-1′H-spiro[cyclopropane-1,4′-[2,7]naphthyridin]-3′(2′H)-one]
2 | >3 | >5 | COc1cc(OC)c(F)c(N2Cc3cnc(-c4cn(C)nc4C)cc3N(c3ccc(C(=O)N(C)C)cc3)C2=O)c1F [Example 113, 4-(3-(2,6-difluoro-3,5-dimethoxyphenyl)-7-(1,3-dimethyl-1H-pyrazol-4-yl)-2-oxo-3,4-dihydropyrido[4,3-d]pyrimidin-1(2H)-yl)-N,N-dimethylbenzamide]
3 | >10 | >5 | COc1cc(OC)c(F)c(N2Cc3cnc(-c4cn(CCCN5CCOCC5)nc4C)cc3C3(CC3)C2=O)c1F [Example 146, 2′-(2,6-difluoro-3,5-dimethoxyphenyl)-6′-(3-methyl-1-(3-morpholinopropyl)-1H-pyrazol-4-yl)-1′H-spiro[cyclopropane-1,4′-[2,7]naphthyridin]-3′(2′H)-one]
4 | >3 | >10 | COc1cccc(N2C(=O)N(c3c(F)c(OC)cc(OC)c3F)Cc3cnc(-c4cn(C)nc4C)cc32)c1 [Example 109, 3-(2,6-difluoro-3,5-dimethoxyphenyl)-7-(1,3-dimethyl-1H-pyrazol-4-yl)-1-(3-methoxyphenyl)-3,4-dihydropyrido[4,3-d]pyrimidin-2(1H)-one]
5 | >10 | >10 | COc1cc(OC)c(F)c(N2Cc3cnc(-c4cn(C)nc4C)cc3N(Cc3nnc(C)o3)C2=O)c1F [Example 46, 3-(2,6-difluoro-3,5-dimethoxyphenyl)-7-(1,3-dimethyl-1H-pyrazol-4-yl)-1-[(5-methyl-1,3,4-oxadiazol-2-yl)methyl]-3,4-dihydropyrido[4,3-d]pyrimidin-2(1H)-one]
6 | >5 | >5 | COc1cc(OC)c(F)c(N2Cc3cnc(-c4cn(C)nc4C)cc3N(Cc3ccc4c(c3)OCCO4)C2=O)c1F [Example 38, 3-(2,6-difluoro-3,5-dimethoxyphenyl)-1-((2,3-dihydrobenzo[b][1,4]dioxin-6-yl)methyl)-7-(1,3-dimethyl-1H-pyrazol-4-yl)-3,4-dihydropyrido[4,3-d]pyrimidin-2(1H)-one]
7 | >1 | >1 | CCN1C(=O)N(c2c(F)c(OC)cc(OC)c2F)Cc2cnc(-c3cn(CC(=O)N4CCOCC4)nc3C)cc21 [Example 51, 3-(2,6-difluoro-3,5-dimethoxyphenyl)-1-ethyl-7-(3-methyl-1-(2-morpholino-2-oxoethyl)-1H-pyrazol-4-yl)-3,4-dihydropyrido[4,3-d]pyrimidin-2(1H)-one]
8 | >10 | >10 | CCN1C(=O)N(c2c(F)c(OC)cc(OC)c2F)Cc2cnc(-c3ccc(C4(C#N)CCC4)nc3)cc21 [Example 27, 1-(5-(3-(2,6-difluoro-3,5-dimethoxyphenyl)-1-ethyl-2-oxo-1,2,3,4-tetrahydropyrido[4,3-d]pyrimidin-7-yl)pyridin-2-yl)cyclobutanecarbonitrile]
9 | >5 | >5 | CCN1C(=O)N(c2c(F)c(OC)cc(OC)c2F)Cc2cnc(-c3ccc(C(=O)NC(C)C)nc3)cc21 [Example 178, 5-(3-(2,6-difluoro-3,5-dimethoxyphenyl)-1-ethyl-2-oxo-1,2,3,4-tetrahydropyrido[4,3-d]pyrimidin-7-yl)-N-isopropylpicolinamide]
10 | >10 | >10 | COc1cc(OC)c(F)c(N2Cc3cnc(-c4cn(C)nc4C)cc3N(c3ccc(C#N)cc3)C2=O)c1F [Example 44, 4-(3-(2,6-difluoro-3,5-dimethoxyphenyl)-7-(1,3-dimethyl-1H-pyrazol-4-yl)-2-oxo-3,4-dihydropyrido[4,3-d]pyrimidin-1 (2H)-yl)benzonitrile]
11 | >5 | >5 | CCN1C(=O)N(c2c(F)c(OC)cc(OC)c2F)Cc2cnc(-c3ccc(CC#N)cc3)cc21 [Example 180, 2-(4-(3-(2,6-difluoro-3,5-dimethoxyphenyl)-1-ethyl-2-oxo-1,2,3,4-tetrahydropyrido[4,3-d]pyrimidin-7-yl)phenyl)acetonitrile]
12 | >10 | >5 | COc1cc(OC)c(F)c(N2Cc3cnc(-c4cn(C)nc4C)cc3N(c3ccc4ccncc4c3)C2=O)c1F [Example 63, 3-(2,6-difluoro-3,5-dimethoxyphenyl)-7-(1,3-dimethyl-1H-pyrazol-4-yl)-1-(isoquinolin-7-yl)-3,4-dihydropyrido[4,3-d]pyrimidin-2(1H)-one]

Further lines, the compound ahead of its results:

Row | Compound | FGFR1/FGFR3 | FGFR4/FGFR3
13 | COc1cc(OC)c(F)c(N2Cc3cnc(-c4csc(N(C)C)n4)cc3C3(CC3)C2=O)c1F [Example 160, 2′-(2,6-difluoro-3,5-dimethoxyphenyl)-6′-(2-(dimethylamino)thiazol-4-yl)-1′H-spiro[cyclopropane-1,4′-[2,7]naphthyridin]-3′(2′H)-one] | >5 | >5
14 | COc1cc(OC)c(F)c(N2Cc3cnc(-c4cnn(C5(CC#N)CN(C(C)=O)C5)c4)cc3C3(CC3)C2=O)c1F [Example 56, 2-(1-acetyl-3-(4-(2′-(2,6-difluoro-3,5-dimethoxyphenyl)-3′-oxo-2′,3′-dihydro-1′H-spiro[cyclopropane-1,4′-[2,7]naphthyridine]-6′-yl)-1H-pyrazol-1-yl)azetidin-3-yl)acetonitrile] | >5 | >1
15 | CCN1C(=O)N(c2c(F)c(OC)cc(OC)c2F)Cc2cnc(-c3ccc(C4(C#N)CC4)cc3)cc21 [Example 183, 1-(4-(3-(2,6-difluoro-3,5-dimethoxyphenyl)-1-ethyl-2-oxo-1,2,3,4-tetrahydropyrido[4,3-d]pyrimidin-7-yl)phenyl)cyclopropanecarbonitrile] | >3 | >10
16 | COc1cc(OC)c(F)c(N2Cc3cnc(-c4cn(C)nc4C)cc3N(C3CCN(C(C)=O)CC3)C2=O)c1F [Example 43, 1-(1-acetylpiperidin-4-yl)-3-(2,6-difluoro-3,5-dimethoxyphenyl)-7-(1,3-dimethyl-1H-pyrazol-4-yl)-3,4-dihydropyrido[4,3-d]pyrimidin-2(1H)-one] | >10 | >5
17 | COc1cc(OC)c(F)c(N2Cc3cnc(-c4cn(C)nc4C)cc3N(c3cnc(C)cn3)C2=O)c1F [Example 107, 3-(2,6-difluoro-3,5-dimethoxyphenyl)-7-(1,3-dimethyl-1H-pyrazol-4-yl)-1-(5-methylpyrazin-2-yl)-3,4-dihydropyrido[4,3-d]pyrimidin-2(1H)-one] | >3 | >10
18 | CCN1C(=O)N(c2c(F)c(OC)cc(OC)c2F)Cc2cnc(-c3cn(CCN4CCOCC4)nc3C)cc21 [Example 49, 3-(2,6-difluoro-3,5-dimethoxyphenyl)-1-ethyl-7-(3-methyl-1-(2-morpholinoethyl)-1H-pyrazol-4-yl)-3,4-dihydropyrido[4,3-d]pyrimidin-2(1H)-one] | >5 | >1
19 | COc1cc(OC)c(F)c(N2Cc3cnc(-c4cn(CCC5CCNCC5)nc4C)cc3C3(CC3)C2=O)c1F [Example 165, 2′-(2,6-difluoro-3,5-dimethoxyphenyl)-6′-(3-methyl-1-(2-(piperidin-4-yl)ethyl)-1H-pyrazol-4-yl)-1′H-spiro[cyclopropane-1,4′-[2,7]naphthyridin]-3′(2′H)-one] | >3 | >3
20 | CCn1cnc(-c2cc3c(cn2)CN(c2c(F)c(OC)cc(OC)c2F)C(=O)C32CC2)c1 [Example 53, 2′-(2,6-difluoro-3,5-dimethoxyphenyl)-6′-(1-ethyl-1H-imidazol-4-yl)-1′H-spiro[cyclopropane-1,4′-[2,7]naphthyridin]-3′(2′H)-one] | >5 | >5
21 | COc1cc(OC)c(F)c(N2Cc3cnc(-c4cn(C)nc4C)cc3N(c3ccc(-n4cccn4)cc3)C2=O)c1F [Example 77, 1-(4-(1H-pyrazol-1-yl)phenyl)-3-(2,6-difluoro-3,5-dimethoxyphenyl)-7-(1,3-dimethyl-1H-pyrazol-4-yl)-3,4-dihydropyrido[4,3-d]pyrimidin-2(1H)-one] | >5 | >10
22 | COc1cc(OC)c(F)c(N2Cc3cnc(-c4cn(C)nc4C)cc3N(c3ccn(C)n3)C2=O)c1F [Example 100, 3-(2,6-difluoro-3,5-dimethoxyphenyl)-7-(1,3-dimethyl-1H-pyrazol-4-yl)-1-(1-methyl-1H-pyrazol-3-yl)-3,4-dihydropyrido[4,3-d]pyrimidin-2(1H)-one] | >5 | >5
23 | COc1cc(OC)c(F)c(N2Cc3cnc(-c4cn(C)nc4C)cc3N(Cc3cnn(C)c3)C2=O)c1F [Example 72, 3-(2,6-difluoro-3,5-dimethoxyphenyl)-7-(1,3-dimethyl-1H-pyrazol-4-yl)-1-((1-methyl-1H-pyrazol-4-yl)methyl)-3,4-dihydropyrido[4,3-d]pyrimidin-2(1H)-one] | >5 | >10
24 | COc1cc(OC)c(F)c(N2Cc3cnc(-c4cn(C)nc4C)cc3N(Cc3cncnc3)C2=O)c1F [Example 84, 3-(2,6-difluoro-3,5-dimethoxyphenyl)-7-(1,3-dimethyl-1H-pyrazol-4-yl)-1-(pyrimidin-5-ylmethyl)-3,4-dihydropyrido[4,3-d]pyrimidin-2(1H)-one] | >5 | >5
25 | COc1cc(OC)c(F)c(N2Cc3cnc(-c4cn(C)nc4C)cc3N(Cc3ccnc(C)c3)C2=O)c1F [Example 68, 3-(2,6-difluoro-3,5-dimethoxyphenyl)-7-(1,3-dimethyl-1H-pyrazol-4-yl)-1-((2-methylpyridin-4-yl)methyl)-3,4-dihydropyrido[4,3-d]pyrimidin-2(1H)-one] | >5 | >5
